Test results published in patent EP1401829B1, “NOVEL HETEROCYCLIC ANTIBACTERIAL COMPOUNDS” (Microbiotix, Inc., priority 2001, dated 2002).
Values after ≈ are worked out from the molar mass of the structure shown. Where two headings read alike, the source gives them in different places. Marks after values point to notes of the source that are not given here.

Tests used:
B. subtilis = assay: Minimal Inhibitory Concentration (MIC) determination, 96 well plates; format: cell-based, Bacillus subtilis; conditions: Bacillus subtilis; HBI medium, 16 to 18 hours at 37°C; read-out: MIC (µg/ml) B. subtilis
Summary of the method: (§1)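 Broth growth in Heart-Brain Infusion medium, seeded at about 1x10^5 CFU/ml, 16 to 18 hours at 37°C. Growth read at OD 600 nm as percent of untreated control; five concentrations per drug, five data points each, MIC reported in µg/ml.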

S. aureus = assay: as above; format: cell-based, Staphylococcus aureus; conditions: Staphylococcus aureus, read-out: MIC (µg/ml) S. aureus
Summary of the method: (§2)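 Cultures seeded at approximately 1x10^5 CFU/ml in Heart-Brain Infusion medium were exposed to five compound concentrations, five data points each, for 16 to 18 hours at 37°C. Growth at OD 600 nm was expressed as percent of control, and MIC values are given in µg/ml.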

E. fecalis = assay: as above; format: cell-based, Enterococcus fecalis; conditions: Enterococcus; HBI medium, 16 to 18 hours at 37°C; read-out: MIC (µg/ml) E. fecalis
Summary of the method: as §1

MRSA1132 = assay: MIC against clinically relevant strains; format: cell-based; conditions: Staphylococcus aureus; methicillin resistant S. aureus strain
Experimental: (§3) The following methods were used to characterize representative compounds. Minimal Inhibitory Concentration (MIC) determinations. MIC values were determined in 96 well plates, with bacterial growth monitored at OD 600 nm in 200µl following an initial bacterial seeding at approximately 1x10^5 colony forming units (CFU)/ml. Each drug is evaluated at five concentrations, with five data points at each dilution. MIC values (µg/ml) were determined against actively growing cultures in Heart-Brain Infusion (HBI) medium. Cell growth in cultures supplemented with a test compound was calculated as a percent of control at OD 600 nm after 16 to 18 hours at 37°C. This plate format conserves test compound and provides precise, quantitative data with low standard deviation determinations. Polymerase IIIC (Pol IIIC) assay. DNA polymerase activity (or inhibition thereof) was measured in a 96-well plate format. B. subtilis Pol IIIC was isolated as described by Hammond and Brown (Protein Expr. Purif., 3: 65-70 (1992)). Each 25 µl assay contained 30 mM Tris, pH 7.5, 10 mM magnesium acetate, 4 mM dithiothreitol, 20% glycerol, with 25 µM dATP, dCTP, dGTP and 10 µM dTTP (^3H-labelled at 1.44 Ci/mmole) and 0.4 mg/ml activated calf thymus DNA as substrates, as described previously (see Barnes et al, op. cit). Assays were initiated by the addition of 0.025 to 0.06 units of enzyme 1 unit is the amount required to incorporate 250 pmoles of [^3H] dTMP in a standard assay), incubated for 10 minutes at 30°C and terminated by the addition of 200 µl of cold 10% trichloroacetic acid (TCA),10 mM sodium pyrophosphate. Precipitated labeled DNA was collected on glass fiber filter plates, washed, dried, and counted in a liquid scintillation counter. Determination of Ki values. DNA polymerase activity was measured in a 96-well plate format in the absence of dGTP or dATP, depending on the structure of the test compound. Each 25 µl assay contained 30 mM Tris, pH 7.5, 10 mM magnesium acetate, 4 mM dithiothreitol, 20% glycerol, with 25 µM dATP, dCTP, and 10 µM dTTP (^3H-labelled at 1.44 Ci/mmole) and 0.4 mg/ml activated calf thymus DNA as substrates, as described previously. To each well were added 2 µl of compound solution to give final concentrations ranging from 20 - 0.027 µg/ml in the assay. Assays were initiated by the addition of 0.025 to 0.06 units of enzyme (1 unit is the amount required to incorporate 250 pmoles of [^3H] dTMP in a standard assay), incubated for 10 minutes at 30 °C and terminated by the addition of 200 µl of cold 10% trichloroacetic acid, 10 mM sodium pyrophosphate. Precipitated labeled DNA was collected on glass fiber filter plates, washed, dried, and counted in a liquid scintillation counter. Ki is the concentration of test compound that reduces the control polymerase IIIC activity by 50 percent.
(§4) Compounds were also tested for antibacterial activity against certain clinically relevant strains, e.g., methicillin sensitive (MSSA) and methicillin resistant (MRSA) strains of Staphylococcus aureus.

MRSA 1123 = assay: MIC against clinically relevant strains; format: cell-based; conditions: Staphylococcus aureus, methicillin resistant S. aureus strain
Experimental: as §3, §4

MSSA108 = assay: MIC against clinically relevant strains; format: cell-based; conditions: Staphylococcus aureus; methicillin sensitive S. aureus strain
Experimental: as §3, §4

MRSA1094 = assay: MIC against clinically relevant strains; format: cell-based; conditions: Staphylococcus aureus; methicillin resistant S. aureus strain
Experimental: as §3, §4

E. coli = assay: Minimal Inhibitory Concentration (MIC) determination, 96 well plates; format: cell-based, Escherichia coli; conditions: Escherichia coli; HBI medium, 16 to 18 hours at 37°C; read-out: MIC (µg/ml) E. coli
Summary of the method: as §2

E. fecium = assay: as above; format: cell-based, Enterococcus fecium; conditions: Enterococcus; HBI medium, 16 to 18 hours at 37°C; read-out: MIC (µg/ml) E. fecium
Summary of the method: as §1

S.aureus (Smith) = assay: as above; format: cell-based, Staphylococcus aureus; conditions: Staphylococcus aureus
Summary of the method: as §1

B. subtilis Pol IIIC = target: T1, B. subtilis Pol IIIC (Bacillus subtilis, UniProt P13267); assay: Polymerase IIIC (Pol IIIC) assay, determination of Ki values; format: biochemical; conditions: assay in absence of dGTP or dATP, Ki is the concentration that reduces control polymerase IIIC activity by 50 percent; for Ki: Ki (µM) Pol IIIC
T1 construct: made in house
T1 sequence (P13267 whole entry): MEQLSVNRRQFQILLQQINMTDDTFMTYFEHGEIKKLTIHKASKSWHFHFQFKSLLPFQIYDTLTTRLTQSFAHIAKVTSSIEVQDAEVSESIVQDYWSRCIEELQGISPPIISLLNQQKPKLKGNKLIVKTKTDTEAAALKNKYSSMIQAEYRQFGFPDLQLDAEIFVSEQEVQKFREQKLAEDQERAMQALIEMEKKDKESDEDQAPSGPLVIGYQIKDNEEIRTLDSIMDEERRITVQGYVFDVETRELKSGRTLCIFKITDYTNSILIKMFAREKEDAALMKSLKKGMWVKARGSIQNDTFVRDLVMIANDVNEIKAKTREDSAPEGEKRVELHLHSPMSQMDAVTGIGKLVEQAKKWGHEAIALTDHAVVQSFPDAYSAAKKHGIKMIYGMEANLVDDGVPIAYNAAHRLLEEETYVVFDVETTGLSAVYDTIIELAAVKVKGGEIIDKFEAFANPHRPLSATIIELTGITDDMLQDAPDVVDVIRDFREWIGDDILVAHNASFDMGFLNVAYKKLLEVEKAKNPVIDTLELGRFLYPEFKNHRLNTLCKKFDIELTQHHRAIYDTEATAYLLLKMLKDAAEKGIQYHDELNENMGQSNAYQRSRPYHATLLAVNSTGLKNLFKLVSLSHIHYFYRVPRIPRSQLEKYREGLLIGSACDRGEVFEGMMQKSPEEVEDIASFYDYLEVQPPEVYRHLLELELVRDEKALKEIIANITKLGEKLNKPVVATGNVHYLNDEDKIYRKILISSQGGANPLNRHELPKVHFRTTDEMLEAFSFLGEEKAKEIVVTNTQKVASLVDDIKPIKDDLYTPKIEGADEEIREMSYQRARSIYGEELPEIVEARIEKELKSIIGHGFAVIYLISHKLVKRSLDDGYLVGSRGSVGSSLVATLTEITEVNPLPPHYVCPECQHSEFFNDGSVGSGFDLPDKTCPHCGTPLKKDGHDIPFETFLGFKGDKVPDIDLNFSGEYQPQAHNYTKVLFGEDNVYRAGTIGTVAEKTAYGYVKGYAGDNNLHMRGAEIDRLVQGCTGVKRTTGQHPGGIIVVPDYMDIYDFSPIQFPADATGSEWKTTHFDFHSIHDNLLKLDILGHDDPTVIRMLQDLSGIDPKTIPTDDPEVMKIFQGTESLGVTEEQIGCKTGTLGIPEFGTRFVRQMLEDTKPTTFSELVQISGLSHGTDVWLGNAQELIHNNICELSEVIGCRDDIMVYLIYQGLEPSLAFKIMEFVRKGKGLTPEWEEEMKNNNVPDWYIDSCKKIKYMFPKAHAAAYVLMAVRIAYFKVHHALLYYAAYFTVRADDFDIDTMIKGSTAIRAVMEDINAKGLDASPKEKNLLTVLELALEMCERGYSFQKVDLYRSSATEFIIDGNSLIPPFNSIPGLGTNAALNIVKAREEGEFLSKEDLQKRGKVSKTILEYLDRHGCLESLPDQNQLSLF
Summary of the method: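 Isolated B. subtilis Pol IIIC (0.025–0.06 units) run 10 min at 30°C in 30 mM Tris pH 7.5, 10 mM Mg acetate, 4 mM DTT, 20% glycerol. Substrates were 0.4 mg/ml activated calf thymus DNA, 25 µM dNTPs and 10 µM [3H]dTTP, with dGTP or dATP omitted per compound structure.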

VRE 700802 = assay: In vivo efficacy of Compound 70 in mouse models; set-up: species or system Enterococcus faecalis; conditions: mice, 3x10^8 CFU/mouse + 5% Mucin; positive control, 100mg/kg, t=0
Experimental: Swiss Webster mice, ca. 20 g each, were infected with Staphylococcus aureus (Smith strain) by the intraperitoneal route. Test compounds (2, 4, 5, 6, 7, 8, 10, 12) were dissolved in 10% dimethylsulfoxide in peanut oil to a concentration of 2 mg/ml. Vancomycin was used as positive control drug (i.e., protection from lethal infection). Fifteen minutes after infection, test compounds, vancomycin, or vehicle alone were given intraperitoneally to groups of five mice each. Animals were monitored for three days, and the number of mice surviving was tabulated for each treatment.
Using the same basic procedure as described above, the in vivo efficacy of Compound 70 was also evaluated at various doses in mice infected with S. aureaus (Smith), MRSA 1094, Enterococcus faecalis, or vancomycin-resistant Enterococcus faecalis strain VRE 700802. […] Negative controls were mice infected that received no treatment. Mucin was employed as an adjuvant to facilitate bacterial infection in mice, where indicated.

[1] = HBI medium, 16 to 18 hours at 37°C
[2] = HBI medium, 16 to 18 hours at 37°C, read-out: MIC (µg/ml) S.aureus (Smith)
[3] = table of MSSA/MRSA strains, read-out: MIC (µg/ml) S. aureus (Smith)

Compound | MIC (B. subtilis) [µg/mL] | MIC (S. aureus; [1]) [µg/mL] | MIC (S. aureus; table of MSSA/MRSA strains) [µg/mL] | MIC (E. fecalis) [µg/mL] | MIC (MRSA1132) [µg/mL] | MIC (MRSA 1123) [µg/mL] | MIC (MSSA108) [µg/mL] | MIC (MRSA1094) [µg/mL] | MIC (E. coli) [µg/mL] | MIC (E. fecium) [µg/mL] | MIC (S.aureus (Smith); [2]) [µg/mL] | MIC (S.aureus (Smith); [3]) [µg/mL] | Ki (B. subtilis Pol IIIC) [µM] | % Survival at 72 hours (VRE 700802) | Ki (µM) Pol IIIC (B. subtilis Pol IIIC)
CCc1cc(Nc2cc(=O)n(CCCCN3CCN(c4c(F)cc5c(=O)c(C(=O)O)cn(CC)c5c4Cl)CC3)c(=O)[nH]2)ccc1C [Compound 5, 3-{4-[1-(1-ethyl-3-carboxy-4-oxo-6-fluoro-8-chloro-7-quinolyl)-4-piperazinyl]butyl}-6-(3-ethyl-4-methylanilino)uracil] | 0.078 (≈ 0.119 µM) | 0.156 (≈ 0.239 µM) | 0.156 (≈ 0.239 µM) | 1.25 (≈ 1.91 µM) | 0.625 (≈ 0.957 µM) | 0.625 (≈ 0.957 µM) | 0.625 (≈ 0.957 µM) | 0.625 (≈ 0.957 µM) | 10 (≈ 15.3 µM) | 2.5 (≈ 3.83 µM) | 0.156 (≈ 0.239 µM) | 0.156 (≈ 0.239 µM) | 0.016 | – | –
CCc1cc(Nc2cc(=O)n(CCCCN3CCN(c4nc5c(cc4F)c(=O)c(C(=O)O)cn5CC)CC3)c(=O)[nH]2)ccc1C [Compound 6, 3-{4-[1-(1-ethyl-3-carboxy-4-oxo-6-fluoro-8-aza-7-quinolyl)-4-piperazinyl]butyl}-6-(3-ethyl-4-methylanilino)uracil] | 0.156 (≈ 0.252 µM) | 0.625 (≈ 1.01 µM) | 0.625 (≈ 1.01 µM) | 1.25 (≈ 2.02 µM) | 0.625 (≈ 1.01 µM) | 0.625 (≈ 1.01 µM) | 0.625 (≈ 1.01 µM) | 1.25 (≈ 2.02 µM) | > 20 | 1.25 (≈ 2.02 µM) | 0.625 (≈ 1.01 µM) | 0.625 (≈ 1.01 µM) | 0.018 | – | –
O=C(O)c1cn(C2CC2)c2cc(N3CCNCC3)c(F)cc2c1=O [cflxn, ciprofloxacin, reference compound] | 0.156 (≈ 0.471 µM) | 0.156 (≈ 0.471 µM) | – | – | – | – | – | – | 0.078 (≈ 0.235 µM) | – | 0.078 (≈ 0.235 µM) | – | – | ciprofloxacin (100mg/kg, t=0) 90% (9/10)** | inactive
Cc1ccc(Nc2cc(=O)n(CCCCN3CCN(c4cc5c(cc4F)c(=O)c(C(=O)O)cn5C4CC4)C[C@@H]3C)c(=O)[nH]2)cc1C [Compound 97, (S)-3-{4-[1-(1-cyclopropyl-3-carboxy-4-oxo-6-fluoro-7-quinolyl)-3-methyl-4-piperazinyl]butyl}-6-(3,4-dimethylanilino)uracil] | 0.235 (≈ 0.373 µM) | 1.25 (≈ 1.98 µM) | – | 0.625 (≈ 0.991 µM) | – | – | – | – | 40 (≈ 63.4 µM) | 1.25 (≈ 1.98 µM) | 0.625 (≈ 0.991 µM) | – | 0.037 | – | –
Cc1ccc(Nc2cc(=O)n(CCCCN3CCN(c4cc5c(cc4F)c(=O)c(C(=O)O)cn5C4CC4)CC3)c(=O)[nH]2)cc1Cl [Compound 64, 3-{4-[1-(1-cyclopropyl-3-carboxy-4-oxo-6-fluoro-7-quinolyl)-4-piperazinyl]butyl}-6-(3-chloro-4-methylanilino)uracil] | 0.313 (≈ 0.491 µM) | 1.25 (≈ 1.96 µM) | – | 1.87 (≈ 2.94 µM) | – | – | – | – | 7.5 (≈ 11.8 µM) | 3.7 (≈ 5.81 µM) | 0.625 (≈ 0.981 µM) | – | 0.055 | – | –
CCc1cc(Nc2cc(=O)n(CCCCCN3CCN(c4cc5c(cc4F)c(=O)c(C(=O)O)cn5C4CC4)CC3)c(=O)[nH]2)ccc1C [Compound 15, 3-{5-[1-(1-cyclopropyl-3-carboxy-4-oxo-6-fluoro-7-quinolyl)-4-piperazinyl]pentyl}-6-(3-ethyl-4-methylanilino)uracil] | 0.156 (≈ 0.242 µM) | 0.625 (≈ 0.969 µM) | – | 0.625 (≈ 0.969 µM) | – | – | – | – | 5 (≈ 7.75 µM) | 1.25 (≈ 1.94 µM) | 0.313 (≈ 0.485 µM) | – | 0.03 | – | –
CCc1cc(Nc2cc(=O)n(CCCCN3CCN(c4ncc5c(=O)c(C(=O)O)cn(CC)c5n4)CC3)c(=O)[nH]2)ccc1C [Compound 79, 3-{4-[1-(1-ethyl-3-carboxy-4-oxo-6,8-diaza-7-quinolyl)-4-piperazinyl]butyl}-6-(3-ethyl-4-methylanilino)uracil] | 0.156 (≈ 0.259 µM) | 1.25 (≈ 2.07 µM) | – | 2.5 (≈ 4.15 µM) | – | – | – | – | > 80 | 3.7 (≈ 6.14 µM) | 0.95 (≈ 1.58 µM) | – | 0.028 | – | –
CCc1cc(Nc2cc(=O)n(CCOCCN3CCN(c4cc5c(cc4F)c(=O)c(C(=O)O)cn5C4CC4)CC3)c(=O)[nH]2)ccc1C [Compound 11, 3-{2-[1-(1-cyclopropyl-3-carboxy-4-oxo-6-fluoro-7-quinolyl)-4-piperazinyl]ethoxyethyl}-6-(3-ethyl-4-methylanilino)uracil] | 1.25 (≈ 1.93 µM) | 5 (≈ 7.73 µM) | – | 10 (≈ 15.5 µM) | – | – | – | – | > 80 | 5 (≈ 7.73 µM) | 2.5 (≈ 3.87 µM) | – | 0.03 | – | –
Cc1ccc(Nc2cc(=O)n(CCCCN3CCN(c4c(F)cc5c(=O)c(C(=O)O)cn(C6CC6)c5c4F)CC3C)c(=O)[nH]2)cc1C (stereo not drawn) [Compound 94, 3-{4-[1-(1-cyclopropyl-3-carboxy-4-oxo-6,8-difluoro-7-quinolyl)-3-methyl-4-piperazinyl]butyl}-6-(3,4-dimethylanilino)uracil] | 0.156 (≈ 0.24 µM) | 0.625 (≈ 0.963 µM) | – | 1.25 (≈ 1.93 µM) | – | – | – | – | 2.5 (≈ 3.85 µM) | 2.5 (≈ 3.85 µM) | 0.313 (≈ 0.482 µM) | – | 0.026 | – | –
CCc1cc(Nc2cc(=O)n(CCCCN3CCN(c4cc5c(cc4F)c(=O)c(C(=O)O)cn5-c4ccc(F)cc4F)C[C@H]3C)c(=O)[nH]2)ccc1C [Compound 90, (R)-3-{4-[1-(1-{2,4-difluorophenyl}-3-carboxy-4-oxo-6-fluoro-7-quinolyl)-3-methyl-4-piperazinyl]butyl}-6-(3-ethyl-4-methylanilino)uracil] | 0.236 (≈ 0.329 µM) | 0.625 (≈ 0.872 µM) | – | 1.25 (≈ 1.74 µM) | – | – | – | – | > 40 | 1.25 (≈ 1.74 µM) | 0.313 (≈ 0.437 µM) | – | 0.017 | – | –
